Source: ChEMBL document CHEMBL3885881, “DrugMatrix”

Species: Rattus norvegicus
Experiment: DrugMatrix - Regimen: Daily Repeat
Type: toxicity, organism-based, Sprague-Dawley
Design: regimen Daily Repeat, gender Male, age 6-8 weeks
Conditions: in vivo, po, route oral GAVAGE, vehicle 100 % WATER; for ABSOLUTE BASOPHIL / ABSOLUTE EOSINOPHIL / ABSOLUTE LYMPHOCYTE / ABSOLUTE MONOCYTE / ABSOLUTE SEGMENTED NEUTROPHIL / BASOPHIL / EOSINOPHIL / ERYTHROCYTE COUNT / HEMATOCRIT / HEMOGLOBIN / LEUKOCYTE COUNT / LYMPHOCYTE / MEAN CORPUSCULAR HEMOGLOBIN / MEAN CORPUSCULAR HEMOGLOBIN CONCENTRATION / MEAN CORPUSCULAR VOLUME / MONOCYTE / NEUTROPHIL / NUCLEATED RED BLOOD CELLS / PLATELET COUNT: tissue Blood; for ALANINE AMINOTRANSFERASE / ALBUMIN / ALKALINE PHOSPHATASE / ASPARTATE AMINOTRANSFERASE / BLOOD UREA NITROGEN / CARBON DIOXIDE / CHLORIDE / CHOLESTEROL / CREATINE PHOSPHOKINASE / CREATININE / GLUCOSE / LACTATE DEHYDROGENASE / LIPASE / PHOSPHORUS / POTASSIUM / SODIUM / TOTAL BILIRUBIN / TOTAL PROTEIN / URIC ACID: tissue Plasma
[1] = 0 mg/kg, 72 h, dose level Control, time 3 day
[2] = 0 mg/kg, 120 h, dose level Control, time 5 day
[3] = 20 mg/kg, 72 h, dose level Low, time 3 day

Structure (SMILES): CCCC(C)C1(CC)C(=O)NC(=O)NC1=O (centres undefined) [PENTOBARBITAL]
- ABSOLUTE BASOPHIL [1]: 0 CELLS/uL
- ABSOLUTE EOSINOPHIL [1]: 32.5 CELLS/uL
- ABSOLUTE LYMPHOCYTE [1]: 9305.83 CELLS/uL
- ABSOLUTE MONOCYTE [1]: 43.83 CELLS/uL
- ABSOLUTE SEGMENTED NEUTROPHIL [1]: 817.83 CELLS/uL
- BASOPHIL [1]: 0%
- EOSINOPHIL [1]: 0.33%
- ERYTHROCYTE COUNT [1]: 5.38 x10E6/uL
- HEMATOCRIT [1]: 33.63%
- HEMOGLOBIN [1]: 13.17 G/DL
- LEUKOCYTE COUNT [1]: 10.2 x10E3/uL
- LYMPHOCYTE [1]: 91.17%
- MEAN CORPUSCULAR HEMOGLOBIN [1]: 24.5 pg
- MEAN CORPUSCULAR HEMOGLOBIN CONCENTRATION [1]: 39.13 G/DL
- MEAN CORPUSCULAR VOLUME [1]: 62.53 fL
- MONOCYTE [1]: 0.5%
- NEUTROPHIL [1]: 8%
- NUCLEATED RED BLOOD CELLS [1]: 0.17 /100WBC
- PLATELET COUNT [1]: 858 x10E3/uL
- ALANINE AMINOTRANSFERASE [1]: 55.67 u/L
- ALBUMIN [1]: 4.07 G/DL
- ALKALINE PHOSPHATASE [1]: 337 u/L
- ASPARTATE AMINOTRANSFERASE [1]: 84 u/L
- BLOOD UREA NITROGEN [1]: 13.17 mg/dL
- CARBON DIOXIDE [1]: 34.17 mmol/L
- CHLORIDE [1]: 99.33 MEQ/L
- CHOLESTEROL [1]: 78.83 mg/dL
- CREATINE PHOSPHOKINASE [1]: 576.83 u/L
- CREATININE [1]: 0.17 mg/dL
- GLUCOSE [1]: 152.67 mg/dL
- LACTATE DEHYDROGENASE [1]: 147.83 u/L
- LIPASE [1]: 9.5 u/L
- PHOSPHORUS [1]: 10.78 mg/dL
- POTASSIUM [1]: 6.34 MEQ/L
- SODIUM [1]: 144.12 MEQ/L
- TOTAL BILIRUBIN [1]: 0.18 mg/dL
- TOTAL PROTEIN [1]: 6.08 G/DL
- URIC ACID [1]: 0.65 mg/dL
- ABSOLUTE BASOPHIL [2]: 0 CELLS/uL
- ABSOLUTE EOSINOPHIL [2]: 31.17 CELLS/uL
- ABSOLUTE LYMPHOCYTE [2]: 7918.33 CELLS/uL
- ABSOLUTE MONOCYTE [2]: 58.33 CELLS/uL
- ABSOLUTE SEGMENTED NEUTROPHIL [2]: 725.5 CELLS/uL
- BASOPHIL [2]: 0%
- EOSINOPHIL [2]: 0.33%
- ERYTHROCYTE COUNT [2]: 5.32 x10E6/uL
- HEMATOCRIT [2]: 33.53%
- HEMOGLOBIN [2]: 13.17 G/DL
- LEUKOCYTE COUNT [2]: 8.73 x10E3/uL
- LYMPHOCYTE [2]: 90.33%
- MEAN CORPUSCULAR HEMOGLOBIN [2]: 24.82 pg
- MEAN CORPUSCULAR HEMOGLOBIN CONCENTRATION [2]: 39.33 G/DL
- MEAN CORPUSCULAR VOLUME [2]: 63.12 fL
- MONOCYTE [2]: 0.67%
- NEUTROPHIL [2]: 8.67%
- NUCLEATED RED BLOOD CELLS [2]: 0 /100WBC
- PLATELET COUNT [2]: 1144.83 x10E3/uL
- ALANINE AMINOTRANSFERASE [2]: 60.5 u/L
- ALBUMIN [2]: 3.97 G/DL
- ALKALINE PHOSPHATASE [2]: 343.17 u/L
- ASPARTATE AMINOTRANSFERASE [2]: 80.83 u/L
- BLOOD UREA NITROGEN [2]: 15 mg/dL
- CARBON DIOXIDE [2]: 31 mmol/L
- CHLORIDE [2]: 99.75 MEQ/L
- CHOLESTEROL [2]: 71.5 mg/dL
- CREATINE PHOSPHOKINASE [2]: 237.17 u/L
- CREATININE [2]: 0.17 mg/dL
- GLUCOSE [2]: 137 mg/dL
- LACTATE DEHYDROGENASE [2]: 146.17 u/L
- LIPASE [2]: 11.5 u/L
- PHOSPHORUS [2]: 10.13 mg/dL
- POTASSIUM [2]: 6 MEQ/L
- SODIUM [2]: 145 MEQ/L
- TOTAL BILIRUBIN [2]: 0.13 mg/dL
- TOTAL PROTEIN [2]: 5.82 G/DL
- URIC ACID [2]: 0.62 mg/dL
- ABSOLUTE BASOPHIL [3]: 0 CELLS/uL
- ABSOLUTE EOSINOPHIL [3]: 0 CELLS/uL
- ABSOLUTE LYMPHOCYTE [3]: 9302.33 CELLS/uL
- ABSOLUTE MONOCYTE [3]: 108 CELLS/uL
- ABSOLUTE SEGMENTED NEUTROPHIL [3]: 989.67 CELLS/uL
- BASOPHIL [3]: 0%
- EOSINOPHIL [3]: 0%
- ERYTHROCYTE COUNT [3]: 5.3 x10E6/uL
- HEMATOCRIT [3]: 32.83%
- HEMOGLOBIN [3]: 12.6 G/DL
- LEUKOCYTE COUNT [3]: 10.4 x10E3/uL
- LYMPHOCYTE [3]: 88.33%
- MEAN CORPUSCULAR HEMOGLOBIN [3]: 23.77 pg
- MEAN CORPUSCULAR HEMOGLOBIN CONCENTRATION [3]: 38.37 G/DL
- MEAN CORPUSCULAR VOLUME [3]: 61.97 fL
- MONOCYTE [3]: 1.33%
- NEUTROPHIL [3]: 10.33%
- NUCLEATED RED BLOOD CELLS [3]: 0 /100WBC
- PLATELET COUNT [3]: 1066.67 x10E3/uL
- ALANINE AMINOTRANSFERASE [3]: 57.67 u/L
- ALBUMIN [3]: 3.9 G/DL
- ALKALINE PHOSPHATASE [3]: 334.33 u/L
- ASPARTATE AMINOTRANSFERASE [3]: 90.67 u/L
- BLOOD UREA NITROGEN [3]: 13.67 mg/dL
- CARBON DIOXIDE [3]: 35.33 mmol/L
- CHLORIDE [3]: 100 MEQ/L
- CHOLESTEROL [3]: 80.67 mg/dL
- CREATINE PHOSPHOKINASE [3]: 384.67 u/L
- CREATININE [3]: 0.14 mg/dL
- GLUCOSE [3]: 140 mg/dL
- LACTATE DEHYDROGENASE [3]: 137 u/L
- LIPASE [3]: 9 u/L
- PHOSPHORUS [3]: 11.23 mg/dL
- POTASSIUM [3]: 5.89 MEQ/L
- SODIUM [3]: 147.3 MEQ/L
- TOTAL BILIRUBIN [3]: 0.13 mg/dL
- TOTAL PROTEIN [3]: 5.67 G/DL
- URIC ACID [3]: 0.7 mg/dL
